According to ChEMBL document CHEMBL1201862, “PubChem BioAssay data set” (2004):
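Following 48 hours of exposure in 96-well plates, responses at five concentrations were used to interpolate endpoints linearly. GI50: concentration for 50% inhibition of growth.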 The source made the active and inactive calls. No stated cut-off is given here; in the data, active = GI50 up to about 1.1 µM and inactive = higher.

What was measured:
Experiment in all cases: NCI tumour cell line growth inhibition, 48 h
UACC-62 = test system: UACC-62
MDA-MB-231 = test system: MDA-MB-231
M14 = test system: M14
U-251 = test system: U-251
OVCAR-5 = test system: OVCAR-5
HT-29 = test system: HT-29
SK-MEL-28 = test system: SK-MEL-28
K562 = test system: K562
MDA-N = test system: MDA-N
HCT-15 = test system: HCT-15
NCI-H522 = test system: NCI-H522
T47D = test system: T47D
IGROV-1 = test system: IGROV-1
SF-539 = test system: SF-539
HCT-116 = test system: HCT-116
SF-295 = test system: SF-295
DU-145 = test system: DU-145
MDA-MB-435 = test system: MDA-MB-435
COLO 205 = test system: COLO 205
A549 = test system: A549

| Compound | GI50 (UACC-62) | GI50 (MDA-MB-231) | GI50 (M14) | GI50 (U-251) | GI50 (OVCAR-5) | GI50 (HT-29) | GI50 (SK-MEL-28) | GI50 (K562) | GI50 (MDA-N) | GI50 (HCT-15) | GI50 (NCI-H522) | GI50 (T47D) | GI50 (IGROV-1) | GI50 (SF-539) | GI50 (HCT-116) | GI50 (SF-295) | GI50 (DU-145) | GI50 (MDA-MB-435) | GI50 (COLO 205) | GI50 (A549) |
| --- | --- | --- | --- | --- | --- | --- | --- | --- | --- | --- | --- | --- | --- | --- | --- | --- | --- | --- | --- | --- |
| OCC1OC(c2scc3c(=S)[nH]cnc23)C(O)C1O (stereo not given) | 8.65 µM (inactive) | 4.61 µM (inactive) | 6.53 µM (inactive) | > 93.3 µM (inactive) | 26.1 µM (inactive) | 5.12 µM (inactive) | 74 µM (inactive) | 13.6 µM (inactive) | 15 µM (inactive) | 4.1 µM | 15.8 µM (inactive) | 0.82 µM (active) | 9.62 µM (inactive) | 8.81 µM (inactive) | 5.3 µM (inactive) | 29 µM (inactive) | 0.859 µM (active) | 20.4 µM (inactive) | 11.2 µM (inactive) | 31.7 µM (inactive) |
| Cc1c2c(nc3ccccc13)C(=O)c1cccnc1C2=O | 3.15 µM (inactive) | 8.34 µM (inactive) | 6.52 µM (inactive) | 10.8 µM (inactive) | 60.4 µM (inactive) | 9.84 µM (inactive) | 11.5 µM (inactive) | 20 µM (inactive) | 1.77 µM (inactive) | 10.9 µM | 6.87 µM (inactive) | 26.7 µM (inactive) | 17.8 µM (inactive) | 5.41 µM (inactive) | 3.91 µM (inactive) | 12.4 µM (inactive) | 21.6 µM (inactive) | 1.79 µM (inactive) | 17.1 µM (inactive) | 1.66 µM (inactive) |
| COc1c(C(=O)NCCN(CCNC(=O)c2cccc(-c3cccc(C(=O)N(C)C)c3OC)c2OC)CCNC(=O)c2cccc(-c3cccc(C(=O)N(C)C)c3OC)c2OC)cccc1-c1cccc(C(=O)N(C)C)c1OC | 31.6 µM (inactive) | 32.4 µM (inactive) | > 100 µM (inactive) | 34 µM (inactive) | 34.2 µM (inactive) | 33.1 µM (inactive) | 19.5 µM (inactive) | 23.8 µM (inactive) | 17.8 µM (inactive) | > 100 µM | 21.6 µM (inactive) | 15.1 µM (inactive) | 36.1 µM (inactive) | 18.1 µM (inactive) | 20 µM (inactive) | > 100 µM (inactive) | 32.7 µM (inactive) | 20.9 µM (inactive) | 22.1 µM (inactive) | > 100 µM (inactive) |
| O=C(CC(C(=O)c1ccco1)c1ccsc1)c1ccco1 (stereo not given) | 90.4 µM (inactive) | 56.8 µM (inactive) | > 100 µM (inactive) | > 100 µM (inactive) | > 100 µM (inactive) | > 100 µM (inactive) | > 100 µM (inactive) | 78 µM (inactive) | > 100 µM (inactive) | > 100 µM | 76.9 µM (inactive) | 17.3 µM (inactive) | > 100 µM (inactive) | > 100 µM (inactive) | > 100 µM (inactive) | > 100 µM (inactive) | > 100 µM (inactive) | > 100 µM (inactive) | > 100 µM (inactive) | 28.8 µM (inactive) |
| CCN1/C(=C/C#C/C(C)=C\c2sc3ccc(Cl)cc3[n+]2CC)Sc2ccc(Cl)cc21 | 3.32 µM (inactive) | 5.93 µM (inactive) | 3.62 µM (inactive) | 3.3 µM (inactive) | 7.94 µM (inactive) | 3.08 µM (inactive) | 9.77 µM (inactive) | 0.552 µM (active) | 3.13 µM (inactive) | 4.61 µM | 1.56 µM (inactive) | 2.9 µM (inactive) | 4 µM (inactive) | 3.57 µM (inactive) | 2.57 µM (inactive) | 3.4 µM (inactive) | 3.68 µM (inactive) | 2.94 µM (inactive) | 1.66 µM (inactive) | 3.57 µM (inactive) |
